One compound from patent publication US7338932B2, “Methods of modulating functions of polypeptide GalNAc-transferases and of screening test substances to find agents herefor, pharmaceutical compositions comprising such agents and the use of such agents for preparing medicaments” (Glycozym APS, priority 2000, dated 2008) can be followed below.

For one experiment, the target named is T1, GalNAc-T4 (Homo sapiens, UniProt Q8N4A0).
T1 construct: using the GalNAc-T4-sol construct that encodes residues 32-578 inserted into pT7T3U19; made in house; host or cells: High Five insect cells (baculovirus, pAcGP67)
The experiment in a line: Inhibition of glycosylation dependent (GalNAc-glycopeptide) activity of GalNAc-T4, MALDI-TOF time-course. In kind it is biochemical. As to conditions: 10 mM benzyl sugar. Here is the method: MALDI-TOF time-course in terminal reactions were performed in reactions of 25 μl containing 2.5 nmol acceptor (glyco)peptide, 40 nmol UDP-GalNAc, and 0.4 μg GalNAc-T4. Sampling of reactions (1 μl) were purified by nano-scale reversed-phase chromatography (Poros R3, PerSeptive Biosystem) and applied directly to the probe with matrix (41). The amount of GalNAc-transferase added was adjusted so that the reaction with the appropriate peptide was near completion in six hours. Reactions were incubated at 37° C. in a shaker bath. At times 0, 2 hours, and 16 hours a 1 μl aliquot was taken and purified. Mass spectra were acquired on either Voyager-DE mass spectrometer equipped with delayed extraction (Perseptive Biosystem Inc.). The matrix used was 2,5-dihydroxybenzoic acid (10 mg/ml, Hewlett-Packard) dissolved in a 2:1 mixture of 0.1% trifluoroacetic acid in 30% aqueous acetonitrile (Rathburn Ltd.).
Quantification of purified proteins was done by Coomassie stained SDS-PAGE and titration of immunoreactivity with the monoclonal antibody, UH6(4G2) (8). […] Wild-type GalNAc-T4 and mutant GalNAc-T4, GalNAc-T4^459H, were analysed with unglycosylated peptides (represented by PSGL-1) or GalNAc glycosylated glycopeptides (represented by GalNAc3TAP25V21) in reactions of 25 μl containing 2.5 nmol acceptor (glyco)peptide, 40 nmol UDP-GalNAc, and 0.4 μg GalNAc-T4. Time-course assays were motioned by MALDI-TOF. Sampling of reactions (1 μl) were purified by nano-scale reversed-phase chromatography (Poros R3, PerSeptive Biosystem) and applied directly to the probe with matrix. Evaluation of inhibition of the glycopeptide specificity of wild-type GalNAc-T4 with free sugars was performed to establish if the lectin domain recognized carbohydrate. […] Further, analysis was performed with 10 mM α-D-GalNAc-1-benzyl, αGlcNAc-benzyl, and fully occupied GalNAc-glycopeptide, GalNAc6TAP25, at 5 mM.

Experiment [1] addresses T2, secreted soluble GalNAc-T2 (sT2) (Homo sapiens, UniProt Q10471).
T2 construct: HIS-tagged secreted human GalNAc-T2 and -T4 were prepared from pAC-GP67-T2-sol and pAC-GP67-T4-sol cDNA; 6xHis (N); thrombin cleavage site (N); T7 tag (N); made in house; host or cells: High Five insect cells (baculovirus)
Put plainly: Direct binding ELISA to GalNAc-MUC1 glycopeptide, competitive inhibition, sT2. How it is done:
(§1) Protein biotinylation was made as previously reported^62. The pH of 1 ml purified protein (0.3 mg/ml) in PBS was adjusted to pH 9 with 1 M NaOH and 40 μl N-hydroxy-succinimidobiotin (Sigma) dissolved in DMF (10 mg/ml) was added. The solution was mixed end-over-end for 2 hours at room temperature, and dialyzed three times against PBS and an equal volume of glycerol was added. The biotinylated proteins were stored at −20° C. in 50% glycerol until use.
(§2) Direct binding ELISA assay was developed as follows: Polystyrene microtiter plates (Maxisorb, Nunc, Denmark) were coated with peptides or enzymatically glycosylated glycopeptides in PBS overnight at 4° C. Plates were washed and blocked with 0.1% Tween20 and 0.2% BSA in PBS for 1 h at room temperature, followed by incubation with biotinylated proteins in PBS with 0.05% Tween20 for 2 h at room temperature. After four washes with PBS, plates were incubated with 1:2,000 dilution streptavidin-HRP (Sigma) in PBS for 30 min at room temperature and washed four times with PBS. Development was performed with 0.5 mg/ml o-phenylenediamine and 0.02% H2O2 at room temperature for 15 min, and reaction stopped by adding 100 μl/well of 0.5 N H2SO4. Competitive inhibition assays were done at end-point titers of GalNAc-transferase proteins with one hour preincubations with inhibitor.
(§3) In binding studies using lectins without biotinylation antibodies to the HIS-tag and the T7-tag, or in some experiments antibodies raised to GalNAc-T2 and -T4 enzymes were used to detect binding.

The target of experiment [2] is T3, secreted soluble GalNAc-T4 (sT4) (Homo sapiens, UniProt Q8N4A0).
T3 construct: using the GalNAc-T4-sol construct that encodes residues 32-578 inserted into pT7T3U19; 6xHis (N); thrombin cleavage site (N); T7 tag (N); made in house; host or cells: High Five insect cells (baculovirus)
The experiment in a line: Direct binding ELISA to GalNAc-MUC1 glycopeptide, competitive inhibition, sT4. How it is done: as §1, §2, §3

Bounds are passed on as bounds.

T3 sequence (Q8N4A0 32-578): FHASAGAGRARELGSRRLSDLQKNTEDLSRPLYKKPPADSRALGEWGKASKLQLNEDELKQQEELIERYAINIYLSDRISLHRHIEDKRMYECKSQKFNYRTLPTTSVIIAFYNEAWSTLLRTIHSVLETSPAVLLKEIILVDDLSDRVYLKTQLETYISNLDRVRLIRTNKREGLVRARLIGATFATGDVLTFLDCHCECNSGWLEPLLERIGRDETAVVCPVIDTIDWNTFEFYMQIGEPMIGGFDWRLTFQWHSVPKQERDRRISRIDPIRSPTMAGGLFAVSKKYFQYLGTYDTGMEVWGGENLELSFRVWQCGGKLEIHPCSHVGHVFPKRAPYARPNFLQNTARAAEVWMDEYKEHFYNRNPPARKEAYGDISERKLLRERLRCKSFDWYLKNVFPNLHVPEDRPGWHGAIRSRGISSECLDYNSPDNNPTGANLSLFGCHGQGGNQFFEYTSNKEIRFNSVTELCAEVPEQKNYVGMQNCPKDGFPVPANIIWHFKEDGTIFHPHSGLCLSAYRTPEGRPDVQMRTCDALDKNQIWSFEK
T2 sequence (Q10471 52-571 limits assumed): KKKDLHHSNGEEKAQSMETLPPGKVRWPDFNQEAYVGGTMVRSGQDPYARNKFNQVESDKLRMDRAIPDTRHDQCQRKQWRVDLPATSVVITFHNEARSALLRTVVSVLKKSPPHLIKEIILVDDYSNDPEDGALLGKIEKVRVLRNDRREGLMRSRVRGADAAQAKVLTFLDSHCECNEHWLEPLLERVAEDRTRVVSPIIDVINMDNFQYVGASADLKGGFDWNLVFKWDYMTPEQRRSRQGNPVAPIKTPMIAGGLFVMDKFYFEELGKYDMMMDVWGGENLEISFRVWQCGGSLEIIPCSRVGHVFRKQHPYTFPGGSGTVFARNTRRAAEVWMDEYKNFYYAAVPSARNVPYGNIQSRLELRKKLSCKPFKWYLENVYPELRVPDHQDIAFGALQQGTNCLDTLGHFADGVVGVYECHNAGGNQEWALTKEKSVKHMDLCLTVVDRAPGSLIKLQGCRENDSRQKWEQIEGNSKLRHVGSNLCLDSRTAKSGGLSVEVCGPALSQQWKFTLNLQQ
T1 sequence (Q8N4A0 32-578): as the sequence (Q8N4A0 32-578) above

Regarding `CC(=O)N[C@H]1[C@@H](OCc2ccccc2)O[C@H](CO)[C@@H](O)[C@@H]1O` [GlcNAcα-benzyl], the “Inhibition of glycosylation dependent specificity of GalNAc-T4” value on GalNAc-T4 is recorded as “did not inhibit”. In addition, the IC50 in experiment [1] and in experiment [2] (binding to GalNAc-MUC1 glycopeptide) was above 100 mM in each case. Also, the “Inhibition of GalNAc-T4 lectin binding” value in experiment [2] (FIG. 7, ELISA plates with GalNAc-Muc1) is “no inhibition”.
